The values that follow come from patent US8168651B2, “Protein kinase modulators” (Cylene Pharmaceuticals, Inc., priority 2008, dated 2012).

The target of one test is recombinant human CK2 (Homo sapiens (Human), UniProt P68400). As to the kind of experiment: CK2 assay (cell-free, 33P-ATP filter plate). The conditions noted are these: 500 nM compound, cell-free assay; read-out: CK2: % inh 500 nM. It counts as biochemical.
The subject of test [1] is HCT-116 human colorectal carcinoma cells. The test is described as follows: Cell-proliferation assay using Alamar Blue dye.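 Also: cells exposed to compound for about 4 days, then Alamar Blue added and dye fluorescence read after about 4 h, compared with medium-only control wells.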 It counts as cell-based. Conditions: Homo sapiens, HCT-116, second HCT-116 column (c8); read-out: HCT-116 (uM) cell proliferation modulatory activity. For orientation: The colour change of resazurin is a common sign of viable cells or microbes.
The target in another test is recombinant human PIM1 (Homo sapiens (Human), UniProt P11309). As to the kind of experiment: PIM-1 kinase activity in cell-free in vitro assay. It counts as biochemical. Conditions: cell-free assay; for inhibition at 0.5 µM: 500 nM compound, read-out: PIM-1: % inh 500 nM.
recombinant human PIM1, sequence (P11309 whole entry): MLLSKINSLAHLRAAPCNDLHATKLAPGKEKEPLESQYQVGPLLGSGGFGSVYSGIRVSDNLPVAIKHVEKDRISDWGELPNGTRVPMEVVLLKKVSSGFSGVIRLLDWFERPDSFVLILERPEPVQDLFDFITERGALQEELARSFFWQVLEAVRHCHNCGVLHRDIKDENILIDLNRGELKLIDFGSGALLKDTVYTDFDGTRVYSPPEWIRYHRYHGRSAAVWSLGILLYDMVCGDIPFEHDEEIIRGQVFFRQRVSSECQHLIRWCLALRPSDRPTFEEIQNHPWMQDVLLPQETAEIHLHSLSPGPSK
The test system of a further test is K-562. As to the kind of experiment: Cell proliferation modulatory activity, K-562. It counts as cell-based. Conditions: Homo sapiens, K562; K-562 cells.
In the next test the test system is MV-4-11. The test is described as follows: Cell proliferation modulatory activity, MV-4-11. It counts as cell-based. The conditions noted are these: Homo sapiens, MV4-11; MV-4-11 cells.

recombinant human CK2, sequence (P68400 whole entry): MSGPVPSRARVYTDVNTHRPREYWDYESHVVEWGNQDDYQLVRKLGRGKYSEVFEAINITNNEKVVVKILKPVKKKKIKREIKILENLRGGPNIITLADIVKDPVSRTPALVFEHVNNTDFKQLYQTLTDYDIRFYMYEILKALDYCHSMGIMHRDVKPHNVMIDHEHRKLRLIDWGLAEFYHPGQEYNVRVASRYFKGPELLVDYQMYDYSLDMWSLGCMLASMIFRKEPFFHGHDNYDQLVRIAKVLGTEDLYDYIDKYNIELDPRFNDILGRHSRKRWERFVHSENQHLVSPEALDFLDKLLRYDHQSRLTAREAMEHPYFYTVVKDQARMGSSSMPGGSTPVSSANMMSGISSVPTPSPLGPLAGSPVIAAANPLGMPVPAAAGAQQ
recombinant human CK2, sequence (P67870 whole entry partner): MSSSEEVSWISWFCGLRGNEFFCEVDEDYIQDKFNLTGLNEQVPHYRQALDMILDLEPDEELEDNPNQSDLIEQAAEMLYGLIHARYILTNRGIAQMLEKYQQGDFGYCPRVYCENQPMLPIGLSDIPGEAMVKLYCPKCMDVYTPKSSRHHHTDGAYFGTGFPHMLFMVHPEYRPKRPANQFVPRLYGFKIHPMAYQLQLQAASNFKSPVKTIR

As for `O=C(O)c1ccc2c(c1)nc(NCCn1cccc1)c1ccncc12`, the inhibition at 0.5 µM on recombinant human CK2 amounted to 99.6%; on recombinant human PIM1, 74.5%. For the same compound, the IC50 was more than 10 µM in test [1], 0.094 µM on recombinant human PIM1, more than 10 µM in the test on K-562 and more than 10 µM in the test on MV-4-11.
Take `CN(C)CCCN(C)c1nc2cc(C#N)ccc2c2sccc12`: the inhibition at 0.5 µM is -4.72% on recombinant human CK2 and 15.3% on recombinant human PIM1. The IC50 in test [1] turned out to be 3.92 µM; in the test with K-562, 7.98 µM; in the test with MV-4-11 it was 3.55 µM.
Consider `O=C(O)c1ccc2c(c1)nc(Nc1ccc3c(c1)OCO3)c1ccncc12`, for which the inhibition at 0.5 µM amounted to 101% at recombinant human CK2 and 76% at recombinant human PIM1. Moreover, the IC50 in test [1] was more than 10 µM; at recombinant human PIM1, 0.157 µM; with K-562, more than 10 µM; in the test on MV-4-11, 8.87 µM.
As to `Clc1ccc(Nc2nc3cc(-c4nnn[nH]4)ccc3c3cscc23)cc1`, the inhibition at 0.5 µM at recombinant human CK2 was 39.5%; on recombinant human PIM1, 15.2%. The IC50 is more than 10 µM in test [1], more than 10 µM in the test with K-562 and 6.44 µM in the test on MV-4-11.
Regarding `CN1CC(Nc2nc3cc(C#N)ccc3c3sccc23)C1`, the inhibition at 0.5 µM is 20.6% at recombinant human CK2 and 0.859% at recombinant human PIM1. Also, the IC50 in test [1] was 0.437 µM; with K-562, more than 10 µM; in the test on MV-4-11, 0.882 µM.
Taken in the same sequence, the figures for `O=C(O)c1ccc2c(c1)nc(Nc1ccccc1)c1cnccc12` were -40.3%, -22.8%, more than 10 µM, more than 10 µM and more than 10 µM.
As for `CCN1CCC[C@@H]1CNc1nc2cc(-c3nnn[nH]3)ccc2c2sccc12`, the inhibition at 0.5 µM on recombinant human CK2 came out at 78.1%; at recombinant human PIM1, 89.9%. For the same compound, the IC50 in test [1] is more than 10 µM; at recombinant human PIM1 it was 0.065 µM; in the test with K-562, more than 10 µM; with MV-4-11 it was more than 10 µM.
As to `N#Cc1ccc2c(c1)nc(N1CCC[C@H]1C(N)=O)c1ccsc12`, the results for the inhibition at 0.5 µM on recombinant human CK2 and on recombinant human PIM1 were 4.42% and 12.2%, respectively. Also, the IC50 (in test [1]; in the test with K-562; in the test on MV-4-11) was more than 10 µM in each case.
For `CC(C)OCCNc1nc2cc(C(=O)O)ccc2c2cnccc12`, the inhibition at 0.5 µM on recombinant human CK2 stood at 93%; on recombinant human PIM1, 48.2%. Also, the IC50 is more than 10 µM in test [1], more than 10 µM in the test on K-562 and 9.46 µM in the test on MV-4-11.
Take `N#Cc1ccc2c(c1)nc(NCc1ccccn1)c1ccsc12`: the inhibition at 0.5 µM came out at 100% at recombinant human CK2 and 2.17% at recombinant human PIM1. The IC50 (in test [1]; in the test with K-562; with MV-4-11) was more than 10 µM in each case.
Regarding `CN1CCN(c2nc3cc(-c4nnn[nH]4)ccc3c3sccc23)CC1`, the inhibition at 0.5 µM on recombinant human CK2 was determined as 7.3%; at recombinant human PIM1, 81.3%. Further, the IC50 in test [1] is more than 10 µM; on recombinant human PIM1 it was 0.178 µM; in the test with K-562, more than 10 µM; with MV-4-11, more than 10 µM.
For `CN1CCCCC1CNc1nc2cc(-c3nnn[nH]3)ccc2c2sccc12` (stereo not drawn), the inhibition at 0.5 µM at recombinant human CK2 was found to be 32.8%; at recombinant human PIM1, 90.9%. The IC50 is more than 10 µM in test [1], 0.064 µM at recombinant human PIM1, more than 10 µM with K-562 and more than 10 µM in the test with MV-4-11.
In the case of `CC(C)(C)OC(=O)N1CCCC1CNc1nc2cc(C#N)ccc2c2sccc12` (stereo not drawn), the values for the inhibition at 0.5 µM at recombinant human CK2 and at recombinant human PIM1 were -35.2% and -14.7%, respectively. Besides, the IC50 (in test [1]; with K-562; in the test on MV-4-11) was more than 10 µM each time.
In the case of `N#Cc1ccc2c(c1)nc(Nc1cccc(Cl)c1)c1cscc12`, the inhibition at 0.5 µM at recombinant human CK2 was -9.4%; on recombinant human PIM1, -32.8%. Also, the IC50 (in test [1]; in the test on K-562; in the test with MV-4-11) was more than 10 µM throughout.
